The values that follow come from US9585888B2, “Reduction of toxicity of multi-targeting antifolates” (Isofol Medical AB, priority 2003, dated 2017).

Data set [1] is described as follows: Tissue concentration of methylene-THF in tumor biopsy after i.v. bolus injection of folates. The format is in vivo, patients. As to conditions: tumor biopsy at 20 minutes after i.v. bolus injection; compared with leucovorin. As for the experimental part: The level of increase of tissue concentration of methylene-THF after administration of leucovorin and methylene-THF, respectively, has been compared. Patients operated upon due to liver metastases were given a dose of folates. Biopses were taken from the tumor before i.v. bolus injection of leucovorin on methylenetetrahydrofolate. At 20 minutes a new tumor biopsy was taken and the concentration of MTHF was assayed.

A further data set concerns tumor growth. As to conditions: cited from earlier work.
Data set [2] concerns experimental adenocarcinoma. As for the experimental part: Eight inbred female Wistar rats were during general anesthesia inoculated in the central liver lobe with 0.1 ml of 1.0 million viable tumor cells of an experimental adenocarcinoma. On day 5 the animals were relaparotomized during general anesthesia, the body weight was recorded and the size of the solitary liver tumor was measured with vernier calipers.
The animals were randomly allocated to two groups. Group 1 received intravenous injections of ALIMTA (pemetrexed) 0.01 mg/kg and group 2 received 0.1 mg/kg of ALIMTA. Both groups received 15 mg/kg of R-5,10-CH2FH4 immediately following the injections of ALIMTA. Therapy was administered through intravenous injections via the tail vein on days 6-8 and days 11-12. On day 13 all animals were sacrificed by an overdose of anesthesia.
The body weights were recorded and the size of the liver tumors was measured. The wet weights of the excised liver tumor and spleen were recorded.

The test system of another data set is TS. Description: TS expression levels after Tomudex intravenous bolus injection in colorectal cancer patients. The format is in vivo. As to conditions: multi-targeting antifolate only. As for the experimental part:
In this experiment, the effect of a multi-targeting antifolate, i.e. Tomudex (raltitrexed), was shown.
Nine colorectal cancer patients were included in the study, and the expression levels were measured in actin, which is a protein serving as an important structural molecule for the cytoskeletons of many eukaryotic cells.

Structures are written as SMILES. Where two headings read alike, the source gives them in different places.

Take `Nc1nc2c(c(=O)[nH]1)N1CN(c3ccc(C(=O)N[C@@H](CCC(=O)O)C(=O)O)cc3)CC1CN2` (stereo partly drawn) [methylene-THF, 5,10-methylene-tetrahydrofolate]: in data set [1], the “tissue concentration of methylene-THF in tumor” value was “greater tissue concentration of methylene-THF than leucovorin”. As for `Nc1nc2c(c(=O)[nH]1)N(C=O)C(CNc1ccc(C(=O)N[C@@H](CCC(=O)O)C(=O)O)cc1)CN2` (stereo partly drawn) [folinic acid], the “effect on tumor growth” value in the data set with tumor growth (folinic acid administered without 5-FU) was “pronounced growth stimulation”. As for `Nc1nc2[nH]cc(CCc3ccc(C(=O)N[C@@H](CCC(=O)O)C(=O)O)cc3)c2c(=O)[nH]1` [ALIMTA, pemetrexed], the extrahepatic tumor growth result in data set [2] (ALIMTA 0.01 mg/kg i.v. + 15 mg/kg R-5,10-CH2FH4 (group 1), day 13) is “extrahepatic tumor growth in the abdominal cavity as metastases to the lungs”. The extrahepatic metastases result in data set [2] (highest Alimta dose (0.1 mg/kg i.v.) + 15 mg/kg R-5,10-CH2FH4 (group 2)) is on record as “no extrahepatic metastases were recorded”. Take `O=c1[nH]cc(F)c(=O)[nH]1` [5-FU, 5-fluorouracil]: the tumor growth suppression entry in the data set with tumor growth (5-FU administered to folate depleted animals 1 hr after folinic acid) is on record as “approximately 80%”; in the data set on tumor growth (control mice), “approximately 50%”. Moreover, the “effect on tumor growth” value in the data set on tumor growth (folinic acid administered 12 hr before 5-FU) is on record as “tumor growth stimulation”.

As for `Cc1nc2ccc(CN(C)c3ccc(C(=O)N[C@@H](CCC(=O)O)C(=O)O)s3)cc2c(=O)[nH]1` [Tomudex, raltitrexed], in the data set with TS (clinical findings), the clinical toxicity result is on record as “severe toxic effects from the bowel made it impossible to continue the treatment”. Further, in the data set with TS (intravenous bolus injection), the “effect on normal mucosa versus tumor (TS expression levels)” value was “the normal mucosa is actually more adversely affected than the tumor”.
